What all share (assay): NCI-60 cell line screen, 48 h
The subject of assay [1] is SNB-78.
Assay [2] has as its system DMS-273.
The test system of assay [3] is KM-20L2.
The test system of assay [4] is M19-MEL.
For assay [5], the system named is DMS-114.
The test system of assay [6] is HOP-18.
For assay [7], the system named is DLD-1.
Assay [8] relates to XF498.
For assay [9], the system named is RXF 631.

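Briefly, cells in 96-well plates were exposed to five compound concentrations for 48 h, and endpoints were estimated by linear interpolation. GI50 = concentration required for 50% inhibition of growth.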 Calls of active or inactive are those of the source. No stated cut-off is given here; in the data, active = GI50 up to about 1.1 µM and inactive = higher.

`Cc1ccc(NC(=O)CSc2nnc(Cc3ccccc3)o2)cc1`: the GI50 was > 100 µM (inactive) in assay [1]; > 100 µM (inactive) in [2]; > 100 µM (inactive) in assay [3]; > 100 µM (inactive) in assay [4]; 53.2 µM (inactive) in assay [5]; > 100 µM (inactive) in assay [6]. For the same compound, the GI50 in assay [7] was > 100 µM (inactive).
Turning to `CCOC(=O)c1c(NNc2ccccc2)nc2ccccc2c1-c1ccccc1`, the GI50 in [1] is 27 µM (inactive); in assay [2] it was 43.2 µM (inactive); in assay [3] it was 35.5 µM (inactive); in assay [4], 24.3 µM (inactive); in assay [5] it was 17.1 µM (inactive); in assay [6] it was 28.6 µM (inactive). The GI50 in assay [7] was 25.9 µM (inactive).
`COC(=O)C(=O)Cc1nc2ccccc2s1`: the GI50 in [1], in assay [2], in [3], in [4], in [5] and in [6] was > 100 µM (inactive) each time. Moreover, the GI50 in assay [7] is > 100 µM (inactive).
As to `Cc1ccc(S(=O)(=O)NC(C)C(=O)O)cc1` (stereo unspecified), the GI50 in [8], in assay [2], in assay [3], in [4], in [9] and in [6] was > 100 µM (inactive) each time. The GI50 in assay [7] was > 100 µM (inactive).
For `COc1cc2ccc3c4cc(OC)c(OCc5ccccc5)cc4cnc3c2cc1OC`, the GI50 in [8], in assay [1], in assay [3], in assay [4], in assay [5] and in assay [7] was > 100 µM (inactive) each time.
As to `CCCCCCCCCCCCCCCCSS(C)(=O)=O`, the GI50 in [8] was 6.1 µM (inactive); in assay [2] it was 27 µM (inactive); in assay [3] it was 37.6 µM (inactive); in [9], 16.3 µM (inactive); in assay [6] it was 58.7 µM (inactive); in [7], 11.6 µM (inactive).
As for `Cc1c(/C=N/NS(=O)(=O)c2ccccc2)no[n+]1[O-]`, the GI50 in assay [3], in [5] and in assay [6] was > 100 µM (inactive) in each case.
As for `Cn1c(O)c(C(=O)NC2CCCCC2)c(=O)n(C)c1=S`, the GI50 in [3] was 8.04 µM (inactive); in [9], 4.91 µM (inactive); in [6] it was 3.6 µM (inactive); in [7] it was 4.93 µM (inactive).
Regarding `CCO/C([O-])=C(\C(=O)c1ccccc1)[n+]1c(C)sc2ccccc21`, the GI50 in [1] is > 100 µM (inactive); in [2], > 100 µM (inactive); in [3], > 100 µM (inactive); in assay [4] it was 18.4 µM (inactive); in assay [5] it was 32.3 µM (inactive); in assay [6], 20 µM (inactive). Moreover, in assay [7], the GI50 was > 100 µM (inactive).
With `COC(=O)C(=O)C(C(=O)C=C(C)C)C(=O)C(=O)Nc1cccc(C(C)=O)c1` (stereo unspecified), the GI50 in assay [8], in [1], in assay [2], in assay [3], in assay [4] and in [9] was > 100 µM (inactive) each time. Further, the GI50 in assay [5], in assay [6] and in assay [7] was > 100 µM (inactive) in each case.
Take `CCNc1nnc(CSc2nc(-c3ccccc3)c(-c3ccccc3)[nH]2)s1`: the GI50 in [1] is 30.8 µM (inactive); in [2] it was 22.2 µM (inactive); in assay [3] it was 27.8 µM (inactive); in assay [4] it was 16.3 µM (inactive); in assay [5], 20.7 µM (inactive); in assay [7] it was 22.7 µM (inactive).
As to `CCCCCCCCC/C=C/C=C/C(=O)NCC(=O)NC1C(O)C(O)C(Nc2ncnc3[nH]cnc23)OC1C(O)CO` (stereo unspecified), the GI50 in [2] was 0.001 µM (active); in assay [3], 0.001 µM (active); in [4], 0.001 µM (active); in [5] it was 0.0551 µM (active); in [7], 0.0655 µM (active).
As for `CCc1cccc(CC)c1NC(=O)C1=CNC(C)=C(C(=O)Nc2c(CC)cccc2CC)C1c1ccc(O)c(OC)c1` (stereo unspecified), the GI50 in [8] was 26.6 µM (inactive); in assay [1], 28.7 µM (inactive); in assay [3] it was 49.5 µM (inactive); in [4] it was 34.4 µM (inactive); in assay [9], 37.9 µM (inactive); in assay [5], 24.5 µM (inactive). In addition, the GI50 in [7] is 47 µM (inactive).
`O=C1C=CC(S(=O)(=O)C2=C/C(=C/Nc3ccc(Cl)cc3)C(=O)C=C2)=C/C1=C/Nc1ccc(Cl)cc1`: the GI50 in assay [2], in assay [3], in assay [4], in [9], in assay [5] and in [6] was > 100 µM (inactive) in each case. Moreover, the GI50 in assay [7] is > 100 µM (inactive).
Turning to `FC(F)(F)C12C34C=CC5(CCC6(C=CC1(CC3)O6)C52C(F)(F)F)O4` (stereo unspecified), the GI50 in assay [8], in assay [1], in assay [2], in assay [3], in assay [4] and in assay [6] was > 100 µM (inactive) in each case.
Take `Nc1ccc(-c2cc(C(=O)Nc3nccs3)nc(S)n2)cc1`: the GI50 was > 100 µM (inactive) in assay [8]; > 100 µM (inactive) in [1]; > 100 µM (inactive) in [3]; > 100 µM (inactive) in assay [4]; > 100 µM (inactive) in assay [5]; 61.1 µM (inactive) in assay [6]. Besides, the GI50 in [7] is > 100 µM (inactive).
Consider `CCOc1ccccc1NC(=O)CCc1nnc2s/c(=C\CCc3ccccc3)c(=O)n12`, for which the GI50 in [8], in [1], in [2], in assay [3], in [4] and in [5] was > 100 µM (inactive) each time. Also, in assay [7], the GI50 was > 100 µM (inactive).
On to `CN1C(=O)N(C)C(N2CCCC2)c2c1nc1ccccn1c2=O` (stereo unspecified), for which the GI50 in assay [8] was 77.8 µM (inactive); in [1] it was 57.4 µM (inactive); in assay [2], 43.4 µM (inactive); in assay [3], > 100 µM (inactive); in assay [4] it was 92.5 µM (inactive); in [5], 56.2 µM (inactive). For the same compound, the GI50 in [6] was > 100 µM (inactive); in assay [7], 35.3 µM (inactive).
With `Nc1nc(-c2ccccc2)c(Cl)c(-c2cc(Cl)ccc2O)n1`, the GI50 in [8] was 28.8 µM (inactive); in assay [1] it was 28.1 µM (inactive); in [2], 29.7 µM (inactive); in assay [3], 65.3 µM (inactive); in assay [4], > 72.1 µM (inactive); in assay [9], 97.7 µM (inactive). Moreover, the GI50 is 26.7 µM (inactive) in [5], 42.3 µM (inactive) in assay [6] and 26.3 µM (inactive) in assay [7].
In the case of `CC(Oc1ccc(OCC2CCCCC2)cc1)C(=O)NCc1ccco1` (stereo unspecified), the GI50 in assay [8] is 17.7 µM (inactive); in assay [1], 58.6 µM (inactive); in [2], 25.5 µM (inactive); in [4] it was 40.7 µM (inactive); in [5], 18.4 µM (inactive); in [6] it was 89.7 µM (inactive). Besides, in assay [7], the GI50 is 34.9 µM (inactive).
Take `N#C/N=C(/N)NCc1ccccc1`: the GI50 in [2], in [3], in [4], in assay [5] and in assay [7] was > 100 µM (inactive) throughout.
As for `N#CC1(C2SCC[S+]2[O-])C2=C(C(=O)c3ccccc3C2=O)N2CCCC21` (stereo unspecified), the GI50 in assay [8] is 2.55 µM (inactive); in assay [1], 1.49 µM (inactive); in assay [2], 3.03 µM (inactive); in assay [3], 4.97 µM (inactive); in assay [4], 0.286 µM (active); in assay [9], 1.46 µM (inactive). The GI50 in assay [5] is 2.14 µM (inactive); in assay [6], 3.25 µM (inactive); in assay [7], 2.74 µM (inactive).
Consider `COCN1COCN/C1=N\C#N`, for which the GI50 in [8] is > 100 µM (inactive); in [1], > 100 µM (inactive); in [2], 98.2 µM (inactive); in assay [3], > 100 µM (inactive); in [4] it was > 100 µM (inactive); in assay [9], > 100 µM (inactive). Also, the GI50 in assay [5], in assay [6] and in assay [7] was > 100 µM (inactive) in each case.
On to `CC(=O)OC[C@]1(C)CCCC2(C)C1CCC1C=C(C)[C@H]3CCC12C3` (stereo partly specified), for which the GI50 is 45.9 µM (inactive) in assay [1], 42.9 µM (inactive) in [3], 63.4 µM (inactive) in [4] and 99.3 µM (inactive) in assay [7].
Consider `CC[C@]1(O)C[C@H]2CN(CCc3c([nH]c4ccccc34)[C@@](C(=O)OC)(c3cc4c(cc3OC)N(C)[C@H]3[C@@](O)(C(=O)OC)[C@H](OC(C)=O)[C@]5(CC)C=CCN6CC[C@]43[C@@H]65)C2)C1`, for which the GI50 in assay [8] was 0.000402 µM (active); in assay [1], 0.00173 µM (active); in [2], 0.000375 µM (active); in assay [3], 0.000397 µM (active); in [9], 0.00262 µM (active); in assay [6], 0.573 µM (active). In addition, the GI50 in assay [7] is 0.00433 µM (active).

For the origin of these results see ChEMBL document CHEMBL1201862, “PubChem BioAssay data set” (2004).
